Measurements published in patent publication US8273713B2 (Amylin Pharmaceuticals, LLC, priority 2000, dated 2012).
Ends that are not written are not given here.

Key:
[1] = test system: food intake; experiment: Food intake in overnight-fasted NIH/SW mice; format: in vivo; details: for effect on food intake: 60 min
Procedure: Female NIH/Swiss mice (8-12 weeks old) were group housed with a 12:12 hour light:dark cycle with lights on at 0600. Water and a standard pelleted mouse chow diet were available ad libitum, except as noted. Animals were fasted and housed individually starting at approximately 1500 hrs, 1 day prior to experiment. The morning of the experiment (approx. 0630 hrs), all animals were weighed and divided into experimental groups so as to give the most similar weight distribution between groups. In a typical study, n=10 for the control group and at least 5 for each treatment group. At time=0 min, all animals were given an intraperitoneal injection of vehicle or compound in a volume of 5 ml/kg and immediately given a pre-weighed amount (10-15 g) of the standard chow. […] Significant treatment effects were identified by ANOVA (p<0.05). Where a significant difference existed, test means were compared to the control mean using Dunnett's test (Prism v2.01, GraphPad Software Inc., San Diego, Calif.).

[2] = test system: gastric emptying; experiment: Gastric emptying in HSD rats (3H-3-O-methyl-glucose gavage); format: in vivo; details: for effect on gastric emptying: 40 minutes
Procedure: Male HSD rats, 180-215 g, were housed with a 12:12 hour light:dark cycle and fasted for 20 hrs (overnight). […] At t=1 min, a solution of 1 mL sterile water containing 5 μCi of ^3H-3-O-methyl-glucose was gavaged by oropharyngeal tube to conscious rats. Blood samples (10 μl) were collected 40 min after gavage and assayed for counts per minute (CPM) in plasma. To eliminate pain during tail vein sampling, 2% Lidocaine (0.1 ml) was injected 3-4 cm from the end of the tail (Gedulin, Jodka et al. Gastroenterology 108: […], 1995). Effects of the test compound were expressed as percent change relative to control, which was calculated as -100*(1-(mean value test rats/mean value controls)). Relative activity was defined as significant if p<0.05 as determined by ANOVA. Where a significant difference existed, test means were compared to the control mean using Dunnett's test (Prism v2.01, GraphPad Software Inc., San Diego, Calif.).

[3] = given peripherally, dose not given

Row | Substance | effect on food intake ([1]; 200 μg/kg intraperitoneal) | effect on gastric emptying ([2]; 200 μg/kg intraperitoneal) | effect on food intake ([1]; 100 μg/kg intraperitoneal) | effect on gastric emptying ([2]; 500 μg/kg intraperitoneal) | effect on food intake ([1]; 500 μg/kg intraperitoneal) | effect on food intake (summary) [1, 3] | effect on gastric emptying (summary) [2, 3]
1 | Ac-PYY[22-36] (Ac-ASLRHYLNLVTRQRY; ends and bridges not checked; listed as Homo sapiens) | inactive | inactive |  |  |  |  | 
2 | NPY[3-36] |  |  | inactive | inactive |  |  | 
3 | Neuropeptide Y [NPY] |  |  | inactive | inactive | trend toward activity | modest decrease in food intake | completely inactive
